The source of these data is patent publication US6892140B1, “Immunogenic cancer peptides and uses thereof” (Enteron, Inc., priority 2000, dated 2005).

The subject of this experiment is serum IgG antibodies from patients with squamous cell carcinoma and from controls. Kind of experiment: Immunoassay 2: serum IgG specific for biotinylated peptide antigens, squamous cell carcinoma patients vs persons not known to have cancer. Type of experiment: binding, human. The conditions noted are these: for sera from squamous cell carcinoma patients with IgG antibody level above control mean background+2.5 SD: 45 squamous cell carcinoma sera; for sera from persons not known to have cancer: IgG antibody level relative to control mean background+2.5 SD: control population. The method, then: Using immunoassay 2 (see Materials and Methods) the following results were obtained.
Immunoassay Method 2: Used to Detect Serum IgA, IgD, IgE, IgG, and IgM Antibodies Specific for Individual Peptide Antigens
NeutrAvidin^a conjugated paper disc, 6 mm.
Serum diluent: 10 mM sodium phosphate, pH 7.20, with 150 MM sodium chloride, and 0.20 mg/mL sodium azide.
NeutrAvidin^a coated white microtiter plate, stored in 10 mM Tris-HCl, pH 7.50, containing 600 mM sodium chloride and 0.2 mg/mL thimerosal.
Plate blocking solution: 10 mM sodium phosphate, pH 7.20, containing 150 mM sodium chloride, 100 mg/mL Triton X-405, and 0.2 mg/mL thimerosal.
Plate wash buffer: 20 mM Tris chloride, pH 7.4, containing 150 mM sodium chloride, 0.5 mg/mL Triton X-405 and 0.2 mg/mL thimerosal.
Peptide solution: 0.06 μg/mL peptide dissolved in 20 mM Tris chloride, pH 7.4, containing 600 mM sodium chloride, 30 mg/mL polyethylene glycol 4000, 1 mM ethylenediaminetetraacetic acid, 1 mM ethylene glycol-bis(§-aminoethyl ether)N,N,N′,N′-tetraacetic acid, 0.5 mg/mL Triton X405 and 0.2 mg/mL thimerosal.
Control peptide solution: 0.013 μg/mL control peptide dissolved in 20 mM Tris chloride, pH 7.4, containing 600 mM sodium chloride, 30 mg/mL polyethylene glycol 4000, 1 mM ethylenediaminetetraacetic acid, 1 mM ethylene glycol-bis(§-aminoethyl ether)N,N,N′,N′-tetraacetic acid, 0.5 mg/mL Triton X-405 and 0.2 mg/mL thimerosal.
Conjugate solution: 0.100 μg/mL alkaline phosphatase conjugated polyclonal goat anti human IgG dissolved in 20 mM Tris-HCl, pH 7.40, with 600 mM sodium chloride, 30.0 mg/mL PEG-4000, 3.0 mg/mL BSA, 0.5 mg/mL Triton X-405 and 0.20 mg/mL thimerosal.
Substrate solution: 25.2 μg/mL 4-methylumbelliferyl phosphate dissolved in 180 mM 2-amino-2-methyl-1-propanol, pH 9.50, containing 123 μM magnesium chloride.
Serum preparation: • 1. Add 100 μL serum to 15 NeutrAvidin^a coated paper discs in a suitably sized test tube. • 2. Incubate with gentle mixing at ambient temperature for 16-20 hours. • 3. Add 7.900 mL of serum diluent and mix gently for 30 minutes. • 4. Vortex the tube gently to completely release the serum from the discs. • 5. Remove the treated serum from the discs and transfer it to a suitable storage tube. • 6. Store the treated serum at 4 EC.
Assay procedure: • 1. Two days before assay, aspirate the storage solution from the NeutrAvidin^a coated white microtiter plate and add 200 μL plate blocking solution to each well. • 2. Cover the plate and incubate at ambient temperature for 16-20 hours. • 3. One day before assay. wash the blocked plate three times with plate wash buffer, approximately 275 μL per well per wash. […] Read the plate at 30 and 60 minutes in a fluorescence microtiter plate reader set at 365 nm excitation and 450 nm emission. […]

“Also recorded” adds a separate entry of the source. Ends that are not written are not given here.

In the case of “aemNgSk: TROP1 peptide with the amino acid sequence aemNgSk (AEMNGSK; not fully specified)”, the “sera from squamous cell carcinoma patients with IgG antibody level above control mean background+2.5 SD” value is listed as 6 of 45 and the “sera from persons not known to have cancer: IgG antibody level relative to control mean background+2.5 SD” value is recorded as “one”.
For “rNvs: EGFR peptide (portion of SEQ ID NO: 67), deglycosylated asparagine N (RNVS; also: deglycosylated asparagine)” the same measures were 2 of 45 and “below the mean background+2.5 standard deviations; also recorded: below the mean background plus 4 standard deviations”.
